Laboratory results reported in ChEMBL document CHEMBL6134863, “Novel Mitochondria-Targeted Asymmetric Heptamethine Cyanine Dye for Cancer Targeted NIR Imaging and Potent Necrosis and Senescence Induction with Prolonged Retention” (J Med Chem, 2025).
Activity calls are given as the source filed them. The rule behind the calls is not given here.

Key:
[1] = Partition coefficient, logP of compound; assay type: physicochemical; conditions: octanol/water
[2] = Distribution coefficient, logD of compound; assay type: physicochemical; conditions: octanol/water
[3] = Ratio of drug level in tumor to muscle of BALB/c mouse implanted with mouse 4T1 cells at 0.5 mg/kg, iv measured at 12 to 24 hrs; assay type: ADME, organism-based; conditions: in vivo, time 12-24 hrs
[4] = Drug accumulation in tumor to muscle of BALB/c mouse implanted with mouse 4T1 cells at 0.5 mg/kg, iv measured at 4 to 168 hrs; assay type: ADME, organism-based; conditions: in vivo, time 4-168 hrs
[5] = Drug uptake in human NCI-H226 cells assessed as increase in red fluorescence intensity at 5 uM incubated for 30 mins by CY7 staining based microscopic analysis; assay type: ADME, cell-based; conditions: nci-h226, 0.5 h
[6] = Drug uptake in human NCI-H226 cells assessed as increase in green fluorescence intensity at 5 uM incubated for 30 mins by F-actin staining staining based microscopic analysis; assay type: ADME, cell-based; conditions: nci-h226, 0.5 h
[7] = Solubility of compound in DMSO-H2O; assay type: physicochemical
[8] = Drug uptake in mouse 4T1 cells assessed as increase in green fluorescence intensity at 5 uM incubated for 30 mins by F-actin staining staining based microscopic analysis; assay type: ADME, cell-based; conditions: 4t1, 0.5 h
[9] = Drug uptake in mouse 4T1 cells assessed as increase in red fluorescence intensity at 5 uM incubated for 30 mins by CY7 staining based microscopic analysis; assay type: ADME, cell-based; conditions: 4t1, 0.5 h
[10] = Photostability of compound in DMSO-H2O incubated for 1 hr irradiated with deuterium lamp by absorbance based analysis; assay type: physicochemical; conditions: read-out: Stability
NCI-H226 = assay: Cytotoxicity against human NCI-H226 assessed as decrease in cell viability up to 10 uM incubated for 24 hrs by CCK-8 assay; assay type: functional, cell-based

logP [1] | logD [2] | Drug uptake [4] | SMILES | other results
5.9 | 4.23 | Active | CC1(C)C(/C=C/C2=C(Cl)C(=C/C=C3/N(CCCCCC(=O)O)c4ccccc4C3(C)C)/CCC2)=[N+](CCCOc2ccc(C(=O)O)cc2)c2ccccc21.[Br-] | Ratio [3]: > 5; Drug uptake [5]: Active; Drug uptake [6]: Active; solubility [7]: 170 µg/mL; Drug uptake [8]: Active; Drug uptake [9]: Active
6.18 | 3.39 | – | COC(=O)CNC(=O)CCN1/C(=C/C=C2\CCCC(/C=C/C3=[N+](CCC(=O)NCC(=O)OC)c4ccc5ccccc5c4C3(C)C)=C2Cl)C(C)(C)c2c1ccc1ccccc21 | –
6.41 | 4.02 | Active | Cc1ccc2c(c1)C(C)(C)C(/C=C/C1=C(Cl)C(=C/C=C3/N(CCCOc4ccc(C(=O)O)cc4)c4ccc(C)cc4C3(C)C)/CCC1)=[N+]2CCCOc1ccc(C(=O)O)cc1.[Br-] | –
7.21 | 5.28 | Active | COC(=O)CCC(=O)CNC(=O)c1ccc(CN2/C(=C/C=C3\CCCC(/C=C/C4=[N+](Cc5ccc(C(=O)NCC(=O)CCC(=O)OC)cc5)c5ccc6ccccc6c5C4(C)C)=C3Cl)C(C)(C)c3c2ccc2ccccc32)cc1.[Br-] | –
7.26 | 3.79 | – | CC1(C)C(/C=C/C=C/C=C/C=C2/N(CCCOc3ccc(C(=O)O)cc3)c3ccc4ccccc4c3C2(C)C)=[N+](CCCOc2ccc(C(=O)O)cc2)c2ccc3ccccc3c21.[Br-] | solubility [7]: 170 µg/mL
5.89 | 4.24 | Active | CCN1/C(=C/C=C2\CCCC(/C=C/C3=[N+](Cc4ccc(C(=O)O)cc4)c4ccccc4C3(C)C)=C2Cl)C(C)(C)c2ccccc21.[Br-] | Drug uptake [5]: Not_active; Drug uptake [6]: Not_active; Drug uptake [8]: Not_active; Drug uptake [9]: Not_active
5.36 | 3.92 | – | COC(=O)C(C)NC(=O)CCN1/C(=C/C=C2\CCCC(/C=C/C3=[N+](CCC(=O)NC(C)C(=O)OC)c4ccccc4C3(C)C)=C2Cl)C(C)(C)c2ccccc21 (stereo not drawn) | –
7.23 | 5.6 | Active | COC(=O)CNC(=O)c1ccc(CN2/C(=C/C=C3\CCCC(/C=C/C4=[N+](Cc5ccc(C(=O)NCC(=O)OC)cc5)c5ccc6ccccc6c5C4(C)C)=C3Cl)C(C)(C)c3c2ccc2ccccc32)cc1.[Br-] | –

More lines, now with the values behind:

SMILES | logP [1] | logD [2] | Drug uptake [4] | other results
CC1(C)C(/C=C/C2=C(Cl)C(=C/C=C3/N(CCOc4ccccc4C(=O)O)c4ccc5ccccc5c4C3(C)C)/CCC2)=[N+](CCOc2ccccc2C(=O)O)c2ccc3ccccc3c21 | 7.27 | 3.73 | – | –
CC1(C)C(/C=C/C=C/C=C/C=C2\N(CCCCS(=O)(=O)O)c3ccc4ccccc4c3C2(C)C)=[N+](CCCCS(=O)(=O)[O-])c2ccc3ccccc3c21 [INDOCYANINE GREEN] | – | – | – | remaining at 1 h [10]: 95.2%; Activity (NCI-H226): Active
COC(=O)CNC(=O)c1ccc(OCCCN2/C(=C/C=C3\CCCC(/C=C/C4=[N+](CCCOc5ccc(C(=O)NCC(=O)OC)cc5)c5ccc6ccccc6c5C4(C)C)=C3Cl)C(C)(C)c3c2ccc2ccccc32)cc1.[Br-] | 7.45 | 5.51 | Active | –
CC1(C)C(/C=C/C=C/C=C/C=C2/N(Cc3ccc(C(=O)O)cc3)c3ccc4ccccc4c3C2(C)C)=[N+](Cc2ccc(C(=O)O)cc2)c2ccc3ccccc3c21.[Br-] | 7.06 | 3.59 | – | solubility [7]: 170 µg/mL
COC(=O)CCC(=O)CNC(=O)c1ccc(CN2/C(=C/C=C3\CCCC(/C=C/C4=[N+](Cc5ccc(C(=O)NCC(=O)CCC(=O)OC)cc5)c5ccccc5C4(C)C)=C3Cl)C(C)(C)c3ccccc32)cc1.[Br-] | 6.17 | 4.48 | Active | Ratio [3]: > 5; Drug uptake [5]: Active; Drug uptake [6]: Active; Drug uptake [8]: Active; Drug uptake [9]: Active
CC(C)(C)OC(=O)Nc1ccc2c(c1)C(C)(C)C(/C=C/C1=C(Cl)C(=C/C=C3/N(Cc4ccc(C(=O)O)cc4)c4ccc(NC(=O)OC(C)(C)C)cc4C3(C)C)/CCC1)=[N+]2Cc1ccc(C(=O)O)cc1 | 6.92 | 3.78 | – | –
COC(=O)CNC(=O)c1ccc(OCCC[N+]2=C(/C=C/C3=C(Cl)C(=C/C=C4/N(Cc5ccc(C(=O)O)cc5)c5ccccc5C4(C)C)/CCC3)C(C)(C)c3ccccc32)cc1.[Br-] | 6.18 | 4.3 | Active | Ratio [3]: > 5; Drug uptake [5]: Active; Drug uptake [6]: Active; Drug uptake [8]: Active; Drug uptake [9]: Active
CC1(C)C(/C=C/C2=C(Cl)C(=C/C=C3/N(Cc4ccc(C(=O)O)cc4)c4ccc(N)cc4C3(C)C)/CCC2)=[N+](Cc2ccc(C(=O)O)cc2)c2ccc(N)cc21 | 5.6 | 3.22 | – | –
Cc1ccc2c(c1)C(C)(C)C(/C=C/C1=C(Cl)C(=C/C=C3/N(Cc4ccc(C(=O)O)cc4)c4ccc(C)cc4C3(C)C)/CCC1)=[N+]2Cc1ccc(C(=O)O)cc1.[Br-] | 6.14 | 4.74 | Active | –
CC1(C)C(/C=C/C2=C(Cl)C(=C/C=C3/N(CCCOc4ccc(C(=O)O)cc4)c4ccc5ccccc5c4C3(C)C)/CCC2)=[N+](CCCOc2ccc(C(=O)O)cc2)c2ccc3ccccc3c21.[Br-] | 7.24 | 4.19 | Active | –
